This passage reports CC50 and IC50 results from US10280179B2, “Spiroquinoxaline derivatives as inhibitors of non-apoptotic regulated cell-death” (Helmholtz Zentrum Munchen—Deutches Forschungszentrum Fur …, priority 2013, dated 2019).

Each structure is given as a SMILES string. pIC50: −log10 of the molar value. Read-outs that look alike come from different tables or passages of the source.

Type in all cases: cell-based
Series [1] can be described thus: Cellular toxicity, same assay as Example B.4 without TAM (Example B.5). Conditions: mouse; Pfa1 cells without TAM; read-out: TC50 (the source's name). An excerpt: Cellular Toxicity of Compounds of the Invention
An estimate of the toxicity for compounds of the invention was obtained by using the same assay as described in Example B.4, but without the addition of TAM. […] Such TC50 values obtained for certain compounds disclosed herein, together with an approximate therapeutic window (estimated by dividing each TC50 by the corresponding IC50 determined from example B.4) are shown in Table 3.

Series [2] relates to mouse hippocampal cell line (Ht22). The series can be described thus: Inhibition of glutamate-induced non-apoptotic cell death (Example B.2). Conditions: HT-22, Ht22 cells. A digest of the protocol:
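Ht22 cells (2,000/well, DMEM/10% FBS) seeded together with 5 mM glutamate and compound (0.5 pM to 100 μM, triplicate), incubated 72 h at 37 °C/5% CO2. Cell survival then quantified; glutamate alone as negative control, alpha-tocopherol as positive control.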

Series [3] relates to human neuroblastoma cell line SH-SY5Y. Description: Inhibition of BSO-induced non-apoptotic cell death (Example B.1). Conditions: SH-SY5Y cells, 72 hours. An outline of the steps:
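SH-SY5Y cells exposed to 50 μM BSO together with compound (0.5 pM–100 μM, triplicate) for 72 h at 37°C, 5% CO2. Survival measured by AquaBluer fluorescence (ex 530–560/em 590 nm), normalised to percent surviving cells, and IC50 derived.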

For the molecule `Clc1cccc(CNC2=Nc3ccccc3NC23CCNCC3)c1` [N-2], the CC50 in series [1] was in the range of 5000 to 10000 nM. The pIC50 in series [2] (glutamate 5 mM, 72 hours, cell survival, read-out: Ht22/GLU (Example B.2) IC50) was approximately 8.00; in series [2] (glutamate-induced cell death, read-out: Ht22/GLU), more than 6.70; in series [3] (50 μM BSO, read-out: SH-SY5Y/BSO IC50), more than 7.70; in series [3] (BSO 50 μM, cell survival (AquaBluer), read-out: SH-SY5Y/BSO (Example B.1) IC50), 8.55.
